# Test results as given in patent US9745305B2, “Modulators of methyl modifying enzymes, compositions and uses thereof” (Constellation Pharmaceuticals, Inc., priority 2013, dated 2017).
# What was measured:
# Y641N EZH2 = Y641N EZH2 (Homo sapiens, UniProt Q15910, Y641N); assay: Assay for Y641N EZH2 (as the EZH2 assay, H3K27Me2 oligonucleosomes as substrate); assay type: biochemical; conditions: Y641N EZH2 mutant, reconstituted H3K27Me2 oligonucleosomes as substrate
# How it was run: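 rPRC2 (2 nM EZH2) with 0.2 μM reconstituted H3K27Me2 biotinylated oligonucleosomes, 3.6 μM H3K27me3 peptide, 0.2 μM ^3H SAM in Tris pH 8.5; compounds (80 to 0.16 μM, 2-fold) pre-incubated 20 min, reaction 60 min, SAH/EDTA quench. Tritiated product captured on streptavidin plates, scintillation counted; IC50 from 4-parameter fit.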
# EZH2 = EZH2 (Homo sapiens, UniProt Q15910); assay: EZH2 Assay (3H SAM methyl transfer, rPRC2, FlashPlate); assay type: biochemical; conditions: rPRC2, biotinylated oligonucleosomes, 0.2 μM 3H SAM, 2 nM EZH2
# EZH2, sequence (Q15910 whole entry): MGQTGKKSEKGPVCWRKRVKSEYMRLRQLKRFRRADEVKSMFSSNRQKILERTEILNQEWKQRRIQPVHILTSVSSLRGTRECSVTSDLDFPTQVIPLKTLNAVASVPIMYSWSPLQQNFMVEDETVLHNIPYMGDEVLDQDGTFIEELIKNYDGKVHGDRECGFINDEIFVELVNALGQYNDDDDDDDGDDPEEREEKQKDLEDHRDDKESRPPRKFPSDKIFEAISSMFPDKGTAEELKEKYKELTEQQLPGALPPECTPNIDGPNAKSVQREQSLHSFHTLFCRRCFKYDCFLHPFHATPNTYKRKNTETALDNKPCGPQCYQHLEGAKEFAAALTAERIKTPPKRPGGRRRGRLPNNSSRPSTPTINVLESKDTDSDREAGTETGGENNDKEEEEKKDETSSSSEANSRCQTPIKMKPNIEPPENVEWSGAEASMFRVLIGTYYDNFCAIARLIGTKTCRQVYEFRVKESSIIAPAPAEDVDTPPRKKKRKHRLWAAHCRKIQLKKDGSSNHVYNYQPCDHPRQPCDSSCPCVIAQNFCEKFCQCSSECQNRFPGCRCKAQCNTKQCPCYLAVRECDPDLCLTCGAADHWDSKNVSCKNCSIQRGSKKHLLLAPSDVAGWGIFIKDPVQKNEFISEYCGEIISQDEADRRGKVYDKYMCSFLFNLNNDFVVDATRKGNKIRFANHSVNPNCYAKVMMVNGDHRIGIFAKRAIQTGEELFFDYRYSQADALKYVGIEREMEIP
# EZH2, sequence (O75530 whole entry partner): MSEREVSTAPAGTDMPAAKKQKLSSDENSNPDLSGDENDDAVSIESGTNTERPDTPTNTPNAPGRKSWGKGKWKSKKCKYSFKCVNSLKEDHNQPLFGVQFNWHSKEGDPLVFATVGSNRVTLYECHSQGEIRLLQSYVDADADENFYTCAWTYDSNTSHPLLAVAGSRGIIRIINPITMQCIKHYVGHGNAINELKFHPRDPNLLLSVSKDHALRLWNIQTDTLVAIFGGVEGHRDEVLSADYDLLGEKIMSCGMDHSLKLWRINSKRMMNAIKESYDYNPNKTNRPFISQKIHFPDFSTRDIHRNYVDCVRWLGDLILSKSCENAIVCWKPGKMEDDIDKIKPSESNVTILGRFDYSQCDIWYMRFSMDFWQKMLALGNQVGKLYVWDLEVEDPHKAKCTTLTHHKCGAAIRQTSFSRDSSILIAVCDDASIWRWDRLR
# EZH2, sequence (Q15022 whole entry partner): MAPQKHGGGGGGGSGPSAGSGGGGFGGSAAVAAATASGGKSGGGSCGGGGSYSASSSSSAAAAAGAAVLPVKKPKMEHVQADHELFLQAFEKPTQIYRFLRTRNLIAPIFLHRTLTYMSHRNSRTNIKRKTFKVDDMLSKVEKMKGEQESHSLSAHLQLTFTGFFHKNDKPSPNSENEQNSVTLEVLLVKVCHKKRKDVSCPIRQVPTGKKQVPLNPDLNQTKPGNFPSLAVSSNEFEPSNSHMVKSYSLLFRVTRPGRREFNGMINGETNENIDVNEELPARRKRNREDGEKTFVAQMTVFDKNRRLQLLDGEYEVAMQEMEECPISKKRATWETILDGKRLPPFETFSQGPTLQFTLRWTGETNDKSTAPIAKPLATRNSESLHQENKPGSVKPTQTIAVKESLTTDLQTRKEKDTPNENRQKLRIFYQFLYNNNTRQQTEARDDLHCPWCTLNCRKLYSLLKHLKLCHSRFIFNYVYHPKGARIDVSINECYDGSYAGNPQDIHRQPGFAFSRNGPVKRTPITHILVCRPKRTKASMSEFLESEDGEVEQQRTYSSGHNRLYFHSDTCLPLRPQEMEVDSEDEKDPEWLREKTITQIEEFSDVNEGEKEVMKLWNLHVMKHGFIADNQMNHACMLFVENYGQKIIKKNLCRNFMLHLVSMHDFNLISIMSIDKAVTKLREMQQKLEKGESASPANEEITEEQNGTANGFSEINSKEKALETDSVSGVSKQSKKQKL
# How it was run: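 rPRC2 (2 nM EZH2) was preincubated 20 min with compound (80 to 0.16 μM, 10 points), then reacted 60 min with 0.2 μM ³H-SAM, 0.2 μM biotinylated oligonucleosomes and 3.6 μM H3K27me3 peptide at pH 8.5. Methylated product was captured on SAV FlashPlates and counted, and IC50 came from a 4-parameter fit.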
# Y641N EZH2, sequence (Q15910 whole entry Y641N): as the sequence (Q15910 whole entry) above, with Y641N counted along it
# Y641N EZH2, sequence (O75530 whole entry partner): as the sequence (O75530 whole entry partner) above
# Y641N EZH2, sequence (Q15022 whole entry partner): as the sequence (Q15022 whole entry partner) above
IC50 (Y641N EZH2) [nM],IC50 (EZH2) [nM],Compound
< 100,< 100,"COc1cc(C)[nH]c(=O)c1CNC(=O)c1c(C)c(C(C)c2ccccc2)n2ncccc12 (racemic) [Compound 101, (±)-N-((4-methoxy-6-methyl-2-oxo-1,2-dihydropyridin-3-yl)methyl)-6-methyl-7-(1-phenylethyl)pyrrolo[1,2-b]pyridazine-5-carboxamide]"
< 100,< 100,"COc1cc(C)[nH]c(=O)c1CNC(=O)c1c(C)c(C(C)C2CCOCC2)n2ncccc12 (racemic) [Compound 116, (±)-N-((4-methoxy-6-methyl-2-oxo-1,2-dihydropyridin-3-yl)methyl)-6-methyl-7-(1-(tetrahydro-2H-pyran-4-yl)ethyl)pyrrolo[1,2-b]pyridazine-5-carboxamide]"
< 100,< 100,"COc1cc(C)[nH]c(=O)c1CNC(=O)c1c(C)c(C(C)c2ccccc2)n2ncccc12 (single isomer, unassigned) [Compound 105, (R or S)-N-((4-methoxy-6-methyl-2-oxo-1,2-dihydropyridin-3-yl)methyl)-6-methyl-7-(1-phenylethyl)pyrrolo[1,2-b]pyridazine-5-carboxamide]"
